Key:
Format in all cases: biochemical
JNK1 = JNK1 (Homo sapiens, UniProt P45983); test: 33PanQinase enzyme assay, JNK1; set-up: purchased ProQinase GmbH, Freiburg, Germany (33PanQinase Assay Service); conditions: ratio IC50(JNK1)/IC50(MKK4)
Method: (§1) The kinase activities of the compounds of the invention were measured using the 33PanQinase® Assay Service provided by ProQinase GmbH, Freiburg, Germany. Details of the assay conditions are disclosed on the website of ProQinase (https://www.proginase.com/products-services-biochemical-assay-services/kinase-assays). In brief, all kinase assays were performed in 96-well FlashPlates™ from PerkinElmer (Boston, MA, USA) in a 50 μl reaction volume. The reaction cocktail was pipetted in four steps in the following order: • 20 μl of assay buffer (standard buffer) • 5 μl of ATP solution (in H2O) • 5 μl of test compound (in 10% DMSO) • 20 μl enzyme/subtrate mix
(§2) The reaction cocktails were incubated at 30° C. for 60 minutes. The reaction is stopped with 50 μl of 2% (v/v) H3PO4, plates were aspirated and washed two times with 200 μl 0.9% (w/v) NaCl. Incorporation of ^33Pi was determined with a microplate scintillation counter (Microbeta, Wallac).
(§3) All assays were performed with a BeckmanCoulter/SAGIAN™ Core System.
(§4) In case of single concentration assays, the potency of the test compound is expressed as % residual activity. […] The fitting method used was a least-squares fit.
(§5) Selectivity of test compounds against BRaf, JNK1 and MKK7, altogether denominated as off-targets was calculated by the ratio of IC50 (off-target)/IC50 (MKK4) and categorized as follows: […]

MKK4 = target: T1, MKK4 (Homo sapiens, UniProt P45985); test: 33PanQinase enzyme assay, MKK4; conditions: assay 'IC50'; for IC50: read-out: Potency MKK4 (IC50)
T1 construct: purchased ProQinase GmbH, Freiburg, Germany (33PanQinase Assay Service)
T1 sequence (P45985 1-399): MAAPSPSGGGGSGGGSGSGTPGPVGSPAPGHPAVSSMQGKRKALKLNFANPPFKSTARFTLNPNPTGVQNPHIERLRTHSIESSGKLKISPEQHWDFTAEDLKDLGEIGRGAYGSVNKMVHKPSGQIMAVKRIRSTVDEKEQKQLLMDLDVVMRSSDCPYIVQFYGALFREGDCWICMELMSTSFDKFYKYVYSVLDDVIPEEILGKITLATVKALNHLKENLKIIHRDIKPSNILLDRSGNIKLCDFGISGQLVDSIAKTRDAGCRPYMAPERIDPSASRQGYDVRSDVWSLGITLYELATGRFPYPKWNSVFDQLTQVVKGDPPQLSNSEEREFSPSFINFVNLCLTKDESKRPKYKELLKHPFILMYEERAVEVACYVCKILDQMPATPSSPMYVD
Method: as §1, §2, §3, §4
Inhibition potency against MKK4 is categorized as follows:
Assay at single concentration (100 nM):

MKK7 = target: T2, MKK7 (Homo sapiens, UniProt O14733); test: 33PanQinase enzyme assay, MKK7; set-up: purchased ProQinase GmbH, Freiburg, Germany (33PanQinase Assay Service); conditions: ratio IC50(MKK7)/IC50(MKK4)
T2 sequence (O14733 1-419): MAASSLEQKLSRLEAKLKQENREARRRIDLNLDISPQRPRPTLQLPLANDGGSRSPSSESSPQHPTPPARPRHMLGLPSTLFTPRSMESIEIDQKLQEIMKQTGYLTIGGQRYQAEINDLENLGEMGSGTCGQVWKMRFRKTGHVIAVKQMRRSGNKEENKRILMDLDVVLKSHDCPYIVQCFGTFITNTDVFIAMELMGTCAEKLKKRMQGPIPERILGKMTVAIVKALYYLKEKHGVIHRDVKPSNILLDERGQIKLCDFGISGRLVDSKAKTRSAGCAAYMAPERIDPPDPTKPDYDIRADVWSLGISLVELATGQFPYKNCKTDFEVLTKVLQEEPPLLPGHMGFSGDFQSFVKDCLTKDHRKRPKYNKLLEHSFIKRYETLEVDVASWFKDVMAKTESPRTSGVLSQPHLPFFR
Method: as §1, §2, §3, §4, §5

BRaf = target: T3, BRaf (Homo sapiens, UniProt P15056); test: 33PanQinase enzyme assay, BRaf; conditions: ratio IC50(BRaf)/IC50(MKK4)
T3 construct: purchased ProQinase GmbH, Freiburg, Germany (33PanQinase Assay Service)
T3 sequence (P15056 whole entry, species assumed): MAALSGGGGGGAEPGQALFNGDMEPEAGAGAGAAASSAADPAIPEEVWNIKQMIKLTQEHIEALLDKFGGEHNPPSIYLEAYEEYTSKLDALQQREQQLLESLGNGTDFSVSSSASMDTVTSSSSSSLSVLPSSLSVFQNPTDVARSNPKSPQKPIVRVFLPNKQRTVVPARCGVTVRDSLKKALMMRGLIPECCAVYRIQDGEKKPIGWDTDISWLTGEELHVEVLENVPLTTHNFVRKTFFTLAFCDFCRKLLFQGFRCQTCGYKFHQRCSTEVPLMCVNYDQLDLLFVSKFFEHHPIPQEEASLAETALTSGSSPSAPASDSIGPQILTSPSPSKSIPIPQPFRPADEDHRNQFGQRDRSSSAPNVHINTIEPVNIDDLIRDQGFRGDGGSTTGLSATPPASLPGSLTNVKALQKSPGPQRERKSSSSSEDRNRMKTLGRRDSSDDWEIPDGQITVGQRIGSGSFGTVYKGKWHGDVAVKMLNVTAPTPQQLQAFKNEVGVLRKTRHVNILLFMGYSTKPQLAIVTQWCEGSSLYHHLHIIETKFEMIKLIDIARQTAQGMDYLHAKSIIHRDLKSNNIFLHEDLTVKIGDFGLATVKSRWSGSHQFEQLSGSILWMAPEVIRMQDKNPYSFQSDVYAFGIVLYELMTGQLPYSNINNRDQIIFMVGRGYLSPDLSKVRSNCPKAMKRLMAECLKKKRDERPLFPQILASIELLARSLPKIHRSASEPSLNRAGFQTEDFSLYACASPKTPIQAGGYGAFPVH
Method: as §1, §2, §3, §4, §5

Chain of JNK1 (P45983 whole entry): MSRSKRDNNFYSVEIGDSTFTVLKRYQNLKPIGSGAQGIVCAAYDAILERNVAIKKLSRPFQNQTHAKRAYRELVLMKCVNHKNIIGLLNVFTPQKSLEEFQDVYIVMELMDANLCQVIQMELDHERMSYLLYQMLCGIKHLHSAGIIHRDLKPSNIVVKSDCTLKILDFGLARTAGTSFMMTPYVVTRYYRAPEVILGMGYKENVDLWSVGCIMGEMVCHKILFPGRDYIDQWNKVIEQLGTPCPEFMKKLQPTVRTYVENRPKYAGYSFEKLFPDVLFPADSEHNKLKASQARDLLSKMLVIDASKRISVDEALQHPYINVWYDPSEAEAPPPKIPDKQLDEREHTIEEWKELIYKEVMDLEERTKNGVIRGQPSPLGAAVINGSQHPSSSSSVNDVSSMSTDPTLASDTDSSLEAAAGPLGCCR

| SMILES | Selectivity JNK1, IC50(off-target)/IC50(MKK4) (JNK1) | Potency MKK4 (IC50) (MKK4) | Selectivity IVIKK7, IC50(off-target)/IC50(MKK4) (MKK7) | Selectivity Braf, IC50(off-target)/IC50(MKK4) (BRaf) | IC50 (MKK4) [µM] |
| --- | --- | --- | --- | --- | --- |
| CCCS(=O)(=O)Nc1c(F)ccc(C(=O)c2c[nH]c3ncc(-c4ccc(-c5nnn[nH]5)cc4)cc23)c1F [Example 219, N-(3-(5-(4-(1H-tetrazol-5-yl)phenyl)-1H-pyrrolo[2,3-b]pyridine-3-carbonyl)-2,6-difluorophenyl)propane-1-sulfonamide] | ++ (100 ≥ IC50(off-target)/IC50(MKK4) > 10) | ++·+ | +++ (IC50(off-target)/IC50(MKK4) > 100) | +++ (IC50(off-target)/IC50(MKK4) > 100) |  |
| CCCS(=O)(=O)Nc1ccc(F)c(C(=O)c2c[nH]c3ncc(-c4cnccn4)cc23)c1F [Example 89, N-(2,4-difluoro-3-(5-(pyrazin-2-yl)-1H-pyrrolo[2,3-b]pyridine-3-carbonyl)phenyl)propane-1-sulfonamide] | ◯ (3 ≥ IC50(off-target)/IC50(MKK4)) |  | ++ (100 ≥ IC50(off-target)/IC50(MKK4) > 10) | ◯ (3 ≥ IC50(off-target)/IC50(MKK4)) | 1 to 10 |
| CCCS(=O)(=O)Nc1ccc(F)c(C(=O)c2c[nH]c3ncc(-c4ccc(SC(F)(F)F)cc4)cc23)c1F [Example 78, N-(2,4-difluoro-3-(5-(4-((trifluoromethyl)thio)phenyl)-1H-pyrrolo[2,3-b]pyridine-3-carbonyl)phenyl)propane-1-sulfonamide] | + (10 ≥ IC50(off-target)/IC50(MKK4) > 3) |  | +++ (IC50(off-target)/IC50(MKK4) > 100) | ◯ (3 ≥ IC50(off-target)/IC50(MKK4)) | 0.1 to 1 |
| CCCS(=O)(=O)Nc1c(F)ccc(C(=O)c2c[nH]c3ncc(-c4cccc(C#N)c4)cc23)c1F [Example 143, N-(3-(5-(3-cyanophenyl)-1-pyrrolo[2,3-b]pyridine-3-carbonyl)-2,6-difluorophenyl)propane-1-sulfonamide] | ++ (100 ≥ IC50(off-target)/IC50(MKK4) > 10) |  | +++ (IC50(off-target)/IC50(MKK4) > 100) | +++ (IC50(off-target)/IC50(MKK4) > 100) | < 0.1 |
| CCCS(=O)(=O)Nc1ccc(F)c(C(=O)c2c[nH]c3ncc(N4CCNCC4)cc23)c1F [Example 71, N-(2,4-difluoro-3-(5-(piperazin-1-yl)-1H-pyrrolo[2,3-b]pyridine-3-carbonyl)phenyl)propane-1-sulfonamide] | ◯ (3 ≥ IC50(off-target)/IC50(MKK4)) |  | ++ (100 ≥ IC50(off-target)/IC50(MKK4) > 10) | ◯ (3 ≥ IC50(off-target)/IC50(MKK4)) | 1 to 10 |
| CCCS(=O)(=O)Nc1ccc(F)c(C(=O)c2c[nH]c3ncc(N4CCCCC4)cc23)c1F [Example 140] | ◯ (3 ≥ IC50(off-target)/IC50(MKK4)) |  | ++ (100 ≥ IC50(off-target)/IC50(MKK4) > 10) | ◯ (3 ≥ IC50(off-target)/IC50(MKK4)) | 1 to 10 |
| O=C(c1c(F)ccc(NS(=O)(=O)CCC(F)(F)F)c1F)c1c[nH]c2ncc(-c3ccc(N4CCSCC4)nc3)cc12 [Example 80, N-(2,4-difluoro-3-(5-(6-thiomorpholinopyridin-3-yl)-1H-pyrrolo[2,3-b]pyridine-3-carbonyl)phenyl)-3,3,3-trifluoropropane-1-sulfonamide] | ++ (100 ≥ IC50(off-target)/IC50(MKK4) > 10) |  | +++ (IC50(off-target)/IC50(MKK4) > 100) | ++ (100 ≥ IC50(off-target)/IC50(MKK4) > 10) | < 0.1 |
| CCCS(=O)(=O)Nc1ccc(F)c(C(=O)c2c[nH]c3ncc(N4CC(O)C4)cc23)c1F [Example 134, N-(2,4-difluoro-3-(5-(3-hydroxyazetidin-1-yl)-1H-pyrrolo[2,3-b]pyridine-3-carbonyl)phenyl)propane-1-sulfonamide] | ◯ (3 ≥ IC50(off-target)/IC50(MKK4)) |  | ++ (100 ≥ IC50(off-target)/IC50(MKK4) > 10) | ◯ (3 ≥ IC50(off-target)/IC50(MKK4)) | 1 to 10 |
| CCCS(=O)(=O)Nc1c(F)ccc(C(=O)c2c[nH]c3ncc(-c4cnc(C#N)nc4)cc23)c1F [Example 189, N-(3-(5-(2-cyanopyrimidin-5-yl)-1H-pyrrolo[2,3-b]pyridine-3-carbonyl)-2,6-difluorophenyl)propane-1-sulfonamide] | ++ (100 ≥ IC50(off-target)/IC50(MKK4) > 10) |  | +++ (IC50(off-target)/IC50(MKK4) > 100) | ++ (100 ≥ IC50(off-target)/IC50(MKK4) > 10) | 0.1 to 1 |

Now from value to compound:

| Selectivity JNK1, IC50(off-target)/IC50(MKK4) (JNK1) | Potency MKK4 (IC50) (MKK4) | Selectivity IVIKK7, IC50(off-target)/IC50(MKK4) (MKK7) | Selectivity Braf, IC50(off-target)/IC50(MKK4) (BRaf) | IC50 (MKK4) [µM] | SMILES |
| --- | --- | --- | --- | --- | --- |
| +++ (IC50(off-target)/IC50(MKK4) > 100) |  | +++ (IC50(off-target)/IC50(MKK4) > 100) | +++ (IC50(off-target)/IC50(MKK4) > 100) | < 0.1 | Cc1cnccc1-c1cnc2[nH]cc(C(=O)c3ccc(F)c(NS(=O)(=O)CCC(F)(F)F)c3F)c2c1 [Example 172, N-(2,6-difluoro-3-(5-(3-methylpyridin-4-yl)-1H-pyrrolo[2,3-b]pyridine-3-carbonyl)phenyl)-3,3,3-trifluoropropane-1-sulfonamide] |
| +++ (IC50(off-target)/IC50(MKK4) > 100) |  | +++ (IC50(off-target)/IC50(MKK4) > 100) | +++ (IC50(off-target)/IC50(MKK4) > 100) | < 0.1 | CCCS(=O)(=O)Nc1c(F)ccc(C(=O)c2c[nH]c3ncc(-c4cnc(OC)nc4OC)cc23)c1F [Example 236, N-(3-(5-(2,4-dimethoxypyrimidin-5-yl)-1H-pyrrolo[2,3-b]pyridine-3-carbonyl)-2,6-difluorophenyl)propane-1-sulfonamide] |
| +++ (IC50(off-target)/IC50(MKK4) > 100) |  | +++ (IC50(off-target)/IC50(MKK4) > 100) | +++ (IC50(off-target)/IC50(MKK4) > 100) | < 0.1 | CCCCS(=O)(=O)Nc1c(F)ccc(C(=O)c2c[nH]c3ncc(-c4ccc(F)cc4C)cc23)c1F [Example 227, N-(2,6-difluoro-3-(5-(4-fluoro-2-methylphenyl)-1H-pyrrolo[2,3-b]pyridine-3-carbonyl)phenyl)butane-1-sulfonamide] |
| +++ (IC50(off-target)/IC50(MKK4) > 100) |  | +++ (IC50(off-target)/IC50(MKK4) > 100) | +++ (IC50(off-target)/IC50(MKK4) > 100) | < 0.1 | CCCS(=O)(=O)Nc1c(F)ccc(C(=O)c2c[nH]c3ncc(-c4cnc(C)cc4C)cc23)c1F [Example 171, N-(3-(5-(4,6-dimethylpyridin-3-yl)-1H-pyrrolo[2,3-b]pyridine-3-carbonyl)-2,6-difluorophenyl)propane-1-sulfonamide] |
